Assay results from ChEMBL document CHEMBL3045562, “4-Pyridyl carbonyl compounds as thrips lures: effectiveness for Western flower thrips in y-tube bioassays” (2008).
Calls of active or inactive are those of the source. No cut-off for these calls is given here.

Key:
Format in all cases: functional
[1] = tested on: Frankliniella occidentalis; test: Thrips luring activity against female Frankliniella occidentalis (western flower thrips) assessed as induction of thrips to walk up odor-laden arm of Y-tube olfactometer at 1 uL by Y-tube olfactometer bioassay
[2] = tested on: Frankliniella occidentalis; test: Thrips luring activity against female Frankliniella occidentalis (western flower thrips) assessed as induction of thrips to walk up odor-laden arm of Y-tube olfactometer at 1 x 10^-1 uL by Y-tube olfactometer bioassay
[3] = tested on: Frankliniella occidentalis; test: Thrips luring activity against female Frankliniella occidentalis (western flower thrips) assessed as trapping of thrips using compound treated yellow sticky traps relative to untreated control under commercial greenhouse
[4] = tested on: Thrips obscuratus; test: Thrips luring activity against female New Zealand Thrips obscuratus (flower thrips) assessed as induction of thrips to walk up odor-laden arm of Y-tube olfactometer by Y-tube olfactometer bioassay
[5] = tested on: Frankliniella occidentalis; test: Thrips luring activity against female Frankliniella occidentalis (western flower thrips) assessed as induction of thrips to walk up odor-laden arm of Y-tube olfactometer by Y-tube olfactometer bioassay
[6] = tested on: Frankliniella occidentalis; test: Thrips luring activity against female Frankliniella occidentalis (western flower thrips) assessed as induction of thrips to walk up odor-laden arm of Y-tube olfactometer at 5 x 10^-1 uL by Y-tube olfactometer bioassay
[7] = tested on: Frankliniella occidentalis; test: Thrips luring activity against female Frankliniella occidentalis (western flower thrips) assessed as induction of thrips to walk up odor-laden arm of Y-tube olfactometer at 1 x 10^-3 uL by Y-tube olfactometer bioassay
[8] = tested on: Frankliniella occidentalis; test: Thrips luring activity against female Frankliniella occidentalis (western flower thrips) assessed as induction of thrips to walk up odor-laden arm of Y-tube olfactometer at 1 x 10^-2 uL by Y-tube olfactometer bioassay
[9] = tested on: Frankliniella occidentalis; test: Thrips luring activity against female Frankliniella occidentalis (western flower thrips) assessed as induction of thrips to walk up odor-laden arm of Y-tube olfactometer at 1 x 10^-5 uL by Y-tube olfactometer bioassay
[10] = tested on: Frankliniella occidentalis; test: Thrips luring activity against female Frankliniella occidentalis (western flower thrips) assessed as induction of thrips to walk up odor-laden arm of Y-tube olfactometer at 5 x 10^-3 uL by Y-tube olfactometer bioassay
[11] = tested on: Frankliniella occidentalis; test: Thrips luring activity against female Frankliniella occidentalis (western flower thrips) assessed as induction of thrips to walk up odor-laden arm of Y-tube olfactometer at 5 x 10^-4 uL by Y-tube olfactometer bioassay

`CCCC(=O)c1ccncc1` [PROPYL 4-PYRIDYL KETONE] was tested, and the Activity [1] was 55% and the Activity [2] was 47%.
Work on `CCCC(O)c1ccncc1` (centres undefined) [1-(4-pyridyl)-1-butanol] yielded an Activity [1] of 47%.
For `CCOC(=O)c1ccncc1` [ETHYL ISONICOTINATE], the “fold change (FC)” value [3] was 14, the MAD [4] was 1 ×10⁻³ microL and the MAD [5] was 1 ×10⁻⁴ microL.
`CC(C)OC(=O)c1ccncc1` [ISOPROPYL ISONICOTINATE] gave an MAD [5] of 1 ×10⁻² microL.
With `CCCOC(=O)c1ccncc1` [N-PROPYL ISONICOTINATE] the MAD [5] was 1 ×10⁻³ microL.
With `N#Cc1ccncc1` [ISONICOTINONITRILE] the Activity [6] was 39%.
With `CC(C)N(C(=O)c1ccncc1)C(C)C` [DI-ISOPROPYL ISONICOTINAMIDE] the Activity [6] was 81%.
Work on `OCCc1ccncc1` [4-(2-HYDROXYETHYL)PYRIDINE] yielded an Activity [1] of 79%, an Activity [7] of 48% and an Activity [8] of 59%.
For `CCOC(=O)c1ccnc(Cl)c1`, the Activity [5] was “Active”.
With `COC(=O)c1ccncc1` [METHYL ISONICOTINATE] the “fold change (FC)” value [3] was 14 and the MAD [5] was 1 ×10⁻⁶ microL.
For `COc1ccc(C=O)cc1` [ANISALDEHYDE], the Activity [9] was 52%.
Compound `CC(C)=CCOC(=O)c1ccncc1` [ISO-PENTENYL ISONICOTINATE] has an Activity [1] of 49%.
`OCc1ccncc1` [PYRIDINE 4-METHANOL] gave an Activity [1] of 52%.
For `CCCCC(=O)OC1CC2CCC1(C)C2(C)C` (centres undefined), the Activity [5] was “Active”.
For `CCOC(=O)c1cccnc1` [ETHYL NICOTINATE], the MAD [4] was 1 ×10⁻⁶ microL.
`CCOC(=O)C1CCNCC1` [ETHYL ISONIPECOTATE] was tested, and the Activity [1] was 63% and the Activity [8] was 49%.
With `c1cc(C2OCCO2)ccn1` [PYRIDINE, 4-(1,3-DIOXALAN-2-YL)] the Activity [10] was 63%, the Activity [6] was 61% and the Activity [11] was 48%.
For `CC(=O)c1ccncc1` [METHYL 4-PYRIDYLKETONE], the “fold change (FC)” value [3] was 4.5.
For `O=Cc1ccncc1` [4-FORMYLPYRIDINE], the Activity [9] was “Active” and the Activity [8] was 15%.
